How the values were obtained:
Lymphocyte = assay: Immunosuppressive activity in mouse lymphocyte assessed as suppression of two-way mixed reaction; type: functional, cell-based
[1] = Toxicity in mouse lymphocytes; type: cell-based, Lymphocyte; settings: read-out: TC50 (the source's name)

SMILES | EC50 (Lymphocyte) [nM] | CC50 [1] [nM]
CCCC[C@@H](C)C[C@@H](C)C(=O)N(C)[C@@H](CC(C)C)C(=O)N[C@H](C(=O)N(C)[C@H](C(=O)N1C[C@@H](O)C[C@H]1C(=O)N1C(=O)C=C[C@@H]1C)C(C)C)[C@H](C)OC(C)=O [MICROCOLIN A] | 1.5 | 22.6
CCCC[C@@H](C)C[C@@H](C)C(=O)N(C)[C@@H](CC(C)C)C(=O)N[C@H](C(=O)N(C)[C@H](C(=O)N1CCC[C@H]1C(=O)N1C(=O)C=C[C@@H]1C)C(C)C)[C@H](C)OC(C)=O [MICROCOLIN B] | 42.7 | 191

Source: ChEMBL document CHEMBL1159027, “Microcolins A and B, new immunosuppressive peptides from the blue-green alga Lyngbya majuscula” (J Nat Prod, 1992)
